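The compound was tested at five concentrations on cells cultured in 96-well plates, with a 48-hour exposure period. GI50 is the concentration that inhibits growth by half. Definition used: TGI = concentration required for complete inhibition of growth.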
What was measured:
Assay in all cases: NCI tumour cell line growth inhibition, 48 h
MALME-3M melanoma = system: MALME-3M melanoma
HT29 colon = system: HT29 colon
M14 melanoma = system: M14 melanoma
MDA-MB-231 breast = system: MDA-MB-231 breast
HS 578T breast = system: HS 578T breast
ACHN renal = system: ACHN renal
EKVX NSCLC = system: EKVX NSCLC
IGROV1 ovarian = system: IGROV1 ovarian
MOLT-4 leukemia = system: MOLT-4 leukemia
SK-MEL-28 melanoma = system: SK-MEL-28 melanoma
KM12 colon = system: KM12 colon
NCI-H226 lung = system: NCI-H226 lung
HCC-2998 colon = system: HCC-2998 colon
UACC-62 melanoma = system: UACC-62 melanoma
NCI/ADR-RES ovarian = system: NCI/ADR-RES ovarian
HOP-62 NSCLC = system: HOP-62 NSCLC
TK-10 renal = system: TK-10 renal
SF-268 CNS = system: SF-268 CNS
NCI-H460 lung = system: NCI-H460 lung
LOX IMVI melanoma = system: LOX IMVI melanoma
SW-620 colon = system: SW-620 colon
SK-MEL-5 melanoma = system: SK-MEL-5 melanoma
CCRF-CEM leukemia = system: CCRF-CEM leukemia
SK-MEL-2 melanoma = system: SK-MEL-2 melanoma
A498 renal = system: A498 renal
SNB-19 CNS = system: SNB-19 CNS
SNB-75 CNS = system: SNB-75 CNS
RPMI-8226 leukemia = system: RPMI-8226 leukemia
UACC-257 melanoma = system: UACC-257 melanoma
T-47D breast = system: T-47D breast
COLO 205 colon = system: COLO 205 colon
OVCAR-5 ovarian = system: OVCAR-5 ovarian
HL-60(TB) leukemia = system: HL-60(TB) leukemia
HCT-15 colon = system: HCT-15 colon
U251 CNS = system: U251 CNS
SF-539 CNS = system: SF-539 CNS
NCI-H522 lung = system: NCI-H522 lung
A549 NSCLC = system: A549 NSCLC
786-0 renal = system: 786-0 renal
SK-OV-3 ovarian = system: SK-OV-3 ovarian
DU-145 prostate = system: DU-145 prostate
HCT-116 colon = system: HCT-116 colon
SR leukemia = system: SR leukemia
PC-3 prostate = system: PC-3 prostate
UO-31 renal = system: UO-31 renal
MCF7 breast = system: MCF7 breast
OVCAR-4 ovarian = system: OVCAR-4 ovarian
OVCAR-8 ovarian = system: OVCAR-8 ovarian
MDA-MB-435 = system: MDA-MB-435
SF-295 CNS = system: SF-295 CNS
BT-549 breast = system: BT-549 breast
RXF 393 renal = system: RXF 393 renal
HOP-92 NSCLC = system: HOP-92 NSCLC
SN12C renal = system: SN12C renal
NCI-H23 lung = system: NCI-H23 lung
CAKI-1 renal = system: CAKI-1 renal

For `CNC(=O)c1cc(-n2ccc3cc(NC(=O)Nc4ccc(N5CCN(C)CC5)c(C(F)(F)F)c4)ccc32)ccn1`, the GI50 (MALME-3M melanoma) was 3.2 µM, the TGI (MALME-3M melanoma) was 6.71 µM and the GI50 (HT29 colon) was 0.938 µM. It also gave a TGI (HT29 colon) of 3.59 µM, a GI50 (M14 melanoma) of 2.95 µM and a TGI (M14 melanoma) of 6.09 µM. The GI50 (MDA-MB-231 breast) was 3.48 µM, the TGI (MDA-MB-231 breast) was 7.81 µM and the GI50 (HS 578T breast) was 2.03 µM. It also gave a TGI (HS 578T breast) of 7.26 µM, a GI50 (ACHN renal) of 3.85 µM and a TGI (ACHN renal) of 7.22 µM. It also gave a GI50 (EKVX NSCLC) of 3.46 µM, a TGI (EKVX NSCLC) of 6.88 µM and a GI50 (IGROV1 ovarian) of 4.12 µM. For the same compound, the TGI (IGROV1 ovarian) was 8.44 µM, the GI50 (MOLT-4 leukemia) was 0.744 µM and the TGI (MOLT-4 leukemia) was 2.91 µM. It also gave a GI50 (SK-MEL-28 melanoma) of 2.96 µM, a TGI (SK-MEL-28 melanoma) of 6.38 µM and a GI50 (KM12 colon) of 0.866 µM. The TGI (KM12 colon) was 3.88 µM, the GI50 (NCI-H226 lung) was > 25 µM and the TGI (NCI-H226 lung) was > 25 µM. It also gave a GI50 (HCC-2998 colon) of 3.53 µM, a TGI (HCC-2998 colon) of 7.05 µM and a GI50 (UACC-62 melanoma) of 4.15 µM. For the same compound, the TGI (UACC-62 melanoma) was 8.22 µM, the GI50 (NCI/ADR-RES ovarian) was 5.3 µM and the TGI (NCI/ADR-RES ovarian) was 13.7 µM. It also gave a GI50 (HOP-62 NSCLC) of 3.41 µM, a TGI (HOP-62 NSCLC) of 7.46 µM and a GI50 (TK-10 renal) of 4.39 µM. It also gave a TGI (TK-10 renal) of 8.16 µM, a GI50 (SF-268 CNS) of 3.3 µM and a TGI (SF-268 CNS) of 7.43 µM. For the same compound, the GI50 (NCI-H460 lung) was 4.1 µM, the TGI (NCI-H460 lung) was 8.4 µM and the GI50 (LOX IMVI melanoma) was 2.68 µM. It also gave a TGI (LOX IMVI melanoma) of 5.95 µM, a GI50 (SW-620 colon) of 3.41 µM and a TGI (SW-620 colon) of 7.11 µM. It also gave a GI50 (SK-MEL-5 melanoma) of 4.28 µM, a TGI (SK-MEL-5 melanoma) of 7.79 µM and a GI50 (CCRF-CEM leukemia) of 2.54 µM. For the same compound, the TGI (CCRF-CEM leukemia) was 16 µM, the GI50 (SK-MEL-2 melanoma) was 4.33 µM and the TGI (SK-MEL-2 melanoma) was 7.95 µM. For the same compound, the GI50 (A498 renal) was 3.61 µM, the TGI (A498 renal) was 7.07 µM and the GI50 (SNB-19 CNS) was 3.49 µM. For the same compound, the TGI (SNB-19 CNS) was 7.23 µM, the GI50 (SNB-75 CNS) was 1.2 µM and the TGI (SNB-75 CNS) was 4.98 µM. It also gave a GI50 (RPMI-8226 leukemia) of 0.886 µM, a TGI (RPMI-8226 leukemia) of 4.01 µM and a GI50 (UACC-257 melanoma) of 3.97 µM. It also gave a TGI (UACC-257 melanoma) of 7.6 µM, a GI50 (T-47D breast) of 3.65 µM and a TGI (T-47D breast) of 9.08 µM. For the same compound, the GI50 (COLO 205 colon) was 4.21 µM, the TGI (COLO 205 colon) was 8.75 µM and the GI50 (OVCAR-5 ovarian) was 3.57 µM. The TGI (OVCAR-5 ovarian) was 7.74 µM, the GI50 (HL-60(TB) leukemia) was 1.44 µM and the TGI (HL-60(TB) leukemia) was 6.33 µM. For the same compound, the GI50 (HCT-15 colon) was 0.796 µM, the TGI (HCT-15 colon) was 3.48 µM and the GI50 (U251 CNS) was 2.43 µM. For the same compound, the TGI (U251 CNS) was 5.48 µM, the GI50 (SF-539 CNS) was 1.2 µM and the TGI (SF-539 CNS) was 4.53 µM. The GI50 (NCI-H522 lung) was > 25 µM, the TGI (NCI-H522 lung) was > 25 µM and the GI50 (A549 NSCLC) was 3.58 µM. For the same compound, the TGI (A549 NSCLC) was 7.36 µM, the GI50 (786-0 renal) was 2.03 µM and the TGI (786-0 renal) was 5.31 µM. For the same compound, the GI50 (SK-OV-3 ovarian) was 4.21 µM, the TGI (SK-OV-3 ovarian) was 7.75 µM and the GI50 (DU-145 prostate) was 3.97 µM. For the same compound, the TGI (DU-145 prostate) was 7.52 µM, the GI50 (HCT-116 colon) was 1.7 µM and the TGI (HCT-116 colon) was 4.87 µM. For the same compound, the GI50 (SR leukemia) was 0.479 µM, the TGI (SR leukemia) was 2.85 µM and the GI50 (PC-3 prostate) was 3.6 µM. For the same compound, the TGI (PC-3 prostate) was 9.56 µM, the GI50 (UO-31 renal) was 4.27 µM and the TGI (UO-31 renal) was 8.56 µM. It also gave a GI50 (MCF7 breast) of 2.3 µM, a TGI (MCF7 breast) of 6.34 µM and a GI50 (OVCAR-4 ovarian) of 3.65 µM. The TGI (OVCAR-4 ovarian) was 8.62 µM, the GI50 (OVCAR-8 ovarian) was 4.27 µM and the TGI (OVCAR-8 ovarian) was 8.27 µM. It also gave a GI50 (MDA-MB-435) of 3.67 µM, a TGI (MDA-MB-435) of 7.17 µM and a GI50 (SF-295 CNS) of 0.492 µM. It also gave a TGI (SF-295 CNS) of 1.11 µM, a GI50 (BT-549 breast) of 2.7 µM and a TGI (BT-549 breast) of 5.75 µM. For the same compound, the GI50 (RXF 393 renal) was 0.633 µM, the TGI (RXF 393 renal) was 1.75 µM and the GI50 (HOP-92 NSCLC) was 1.22 µM. It also gave a TGI (HOP-92 NSCLC) of 4.68 µM, a GI50 (SN12C renal) of 3.53 µM and a TGI (SN12C renal) of 7.56 µM. For the same compound, the GI50 (NCI-H23 lung) was 3.87 µM, the TGI (NCI-H23 lung) was 8.32 µM and the GI50 (CAKI-1 renal) was 4.15 µM. The TGI (CAKI-1 renal) was 8.3 µM.
